Columns and labels:
[1] = biological target: T1, histidine-tagged recombinant human ACAT1 (Homo sapiens, UniProt P35610, M1L); experiment: Steroid (pregnenolone/DHEA/E2) esterification in mixed micelles, ACAT1 as enzyme source; type: biochemical; conditions: for ACAT1 substrate activity: 1 μM [3H]-steroid; for activation of pregnenolone esterification by sterol: sterol at 0.32 mM, 1 μM [3H]-pregnenolone
T1 construct: hACAT-1 cDNA (nucleotide residues 1397-3046, a total of 550 amino acids); made in house; partially purified on a nickel column
T1 sequence (P35610 1-550 M1L): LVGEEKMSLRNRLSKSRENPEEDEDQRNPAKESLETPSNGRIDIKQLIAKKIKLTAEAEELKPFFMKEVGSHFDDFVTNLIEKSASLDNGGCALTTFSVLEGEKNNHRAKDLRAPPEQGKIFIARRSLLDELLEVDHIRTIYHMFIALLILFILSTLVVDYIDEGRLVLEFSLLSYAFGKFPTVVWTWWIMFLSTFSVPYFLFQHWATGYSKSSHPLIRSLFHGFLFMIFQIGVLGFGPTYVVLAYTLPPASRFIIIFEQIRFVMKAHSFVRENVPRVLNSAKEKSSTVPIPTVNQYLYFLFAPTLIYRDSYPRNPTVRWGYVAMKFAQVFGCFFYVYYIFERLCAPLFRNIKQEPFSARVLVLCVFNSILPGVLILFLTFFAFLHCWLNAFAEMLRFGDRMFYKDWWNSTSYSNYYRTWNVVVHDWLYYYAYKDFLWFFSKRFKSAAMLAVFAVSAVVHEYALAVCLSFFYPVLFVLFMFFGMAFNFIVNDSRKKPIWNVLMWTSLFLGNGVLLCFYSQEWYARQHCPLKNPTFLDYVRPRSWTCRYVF
Excerpt: (§1) The method of the present invention was developed in experiments using a mixed micelle enzyme assay system. […] A candidate ACAT inhibitor is an allosteric inhibitor if it is shown in the method of the present invention to inhibit cholesterol-dependent pregnenolone esterification but not to inhibit the basal pregnenolone esterification when cholesterol is absent in the assay mixture. […] In the assay system of the present invention, the source of ACAT was histidine-tagged recombinant human ACAT1 or human ACAT2, stably expressed in Chinese hamster ovary (CHO) cells that lack endogenous ACAT activity. However, one of skill in the art could employ other suitable mammalian cell systems as needed. The enzyme preparations used in the present method were partially purified through the use of nickel column chromatography, as described previously (Liu et al. 2005. Biochem. J. 391:389-397), using cells that stably expressing histidine-tagged recombinant human ACAT1 or human ACAT2 as the enzyme source.
(§2) In developing the method of the present invention, a series of experiments was performed. Pregnenolone is one compound that contains the classical A, B, C, D steroid rings as well as a 3 beta-OH moiety. Based on its structure, pregnenolone may be an ACAT substrate. However, this possibility had not previously been tested experimentally. In the present invention, the activity of pregnenolone was tested by using radiolabeled pregnenolone ([^3H]-pregnenolone) in a mixed micelle enzyme assay mixture that contained the detergent taurocholate (or CHAPS), phosphatidylcholine, and oleyl-coenzyme A bound to bovine serum albumin (BSA). The enzyme used was histidine-tagged human ACAT1 or human ACAT2. The esterification of pregnenolone (i.e., formation of pregnenolone oleate) was monitored by performing lipid extraction to isolate [^3H]-pregnenolone oleate and [^3H]-pregnenolone. [^3H]-pregnenolone oleate was then separated from [^3H]-pregnenolone by using conventional thin-layer chromatography. Levels of [^3H]-pregnenolone oleate formed was measured using a scintillation counter. […] Thus, using ACAT1 as the enzyme source, the esterification of DHEA was examined (FIG. 1C).
A pregnenolone substrate saturation curve was then constructed, with or without addition of cholesterol to the assay mixture, using ACAT1 as the enzyme source (FIG. 2A). […] Then, a DHEA substrate saturation curve was constructed, with cholesterol present.
Further experiments were performed to examine the effect of adding various non-oxysterols, at a concentration of 0.32 mM, on pregnenolone esterification in vitro, with ACAT1 as the enzyme source.
(§3) To assay the enzyme, the pregnenolone/detergent/PC micelles and the cholesterol/detergent/PC micelles were prepared individually as follows: the radiolabeled pregnenolone/PC mixture or the cholesterol/PC mixture was prepared as described previously (Shi et al. 1989. Biochim. Biophys. Acta 982:187-195) and lyophilized to remove residual organic solvents. After lyophilization, the detergent sodium taurocholate (or other detergent such as CHAPS) in Buffer A was added to reach a final concentration of 10 mg/ml. The mixture was purged with nitrogen, followed by sonication until this mixture was clear. The pregnenolone/PC micelles were mixed with the cholesterol/PC micelles such that the cholesterol concentration is at 0 mM or at 0.32 mM, and the radioactive pregnenolone concentration is at 1 μM (specific activity 20 Ci/mmol).

[2] = biological target: T2, histidine-tagged recombinant human ACAT2 (Homo sapiens, UniProt O75908); experiment: Pregnenolone esterification in mixed micelles, ACAT2 as enzyme source; type: biochemical; conditions: ACAT2; for activation of pregnenolone esterification by sterol: sterol at 0.32 mM, 1 μM [3H]-pregnenolone
T2 construct: made in house; partially purified on a nickel column
T2 sequence (O75908 1-522): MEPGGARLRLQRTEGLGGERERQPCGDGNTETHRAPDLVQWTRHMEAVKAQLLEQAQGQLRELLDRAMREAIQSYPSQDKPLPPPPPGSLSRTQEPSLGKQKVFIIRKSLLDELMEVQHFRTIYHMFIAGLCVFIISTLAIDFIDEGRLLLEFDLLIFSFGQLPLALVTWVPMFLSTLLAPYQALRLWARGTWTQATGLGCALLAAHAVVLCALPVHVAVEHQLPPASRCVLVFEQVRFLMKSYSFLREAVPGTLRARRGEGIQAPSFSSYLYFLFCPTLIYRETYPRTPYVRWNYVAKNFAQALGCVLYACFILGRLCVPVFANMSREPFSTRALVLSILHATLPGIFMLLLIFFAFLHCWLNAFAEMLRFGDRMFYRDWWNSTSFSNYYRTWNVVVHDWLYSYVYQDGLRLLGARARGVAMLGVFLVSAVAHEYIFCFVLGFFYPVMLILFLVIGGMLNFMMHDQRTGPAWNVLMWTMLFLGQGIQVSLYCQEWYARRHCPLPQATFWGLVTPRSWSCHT
Excerpt: as §1, §2, §3

[3] = biological target: T3, HisACAT1/FLAG (recombinant hACAT1) (Homo sapiens, UniProt P35610, M1L); experiment: Ligand binding by change in intrinsic (tryptophan) fluorescence of HisACAT1/FLAG; conditions: for maximal increase in fluorescence peak height with respect to unliganded ACAT1 protein: excitation 295 nm, peak 330 nm
T3 construct: hACAT1 contains 550 amino acids; made in house
T3 sequence (P35610 1-550 M1L): T1 sequence (P35610 1-550 M1L)
Excerpt: Fluorescence measurements were generated using an ISS PC1 photocounting fluorescence spectrophotometer (model 90095). This instrument has continuously reproducible slits ranging from 0.4 to 32 nm band-pass. The excitation slit width was set at 2 nm. The wavelength for excitation was set at 295 nm in order to minimize the contribution of tyrosine residues to the fluorescence. Purified HisACAT1/FLAG was concentrated using 30K AMICON centrifugal filters such that the final concentration of the protein was 100-200 ng/μL (1.5-3 μM). Purified protein was stored at −80° C. until used. Unless stated otherwise, the fluorescence measurements were performed at pH 7.8 with 50 mM potassium phosphate, 0.5M KCl, and 8.13 mM CHAPS. Sterol (cholesterol, epicholesterol, coprostanol, and epicoprostanol) was prepared as CHAPS/PC/sterol mixed micelles (with CHAPS at 8.13 mM, PC at 4 mM, and with varying concentrations of sterols as indicated) and stored at 20° C. in the dark until usage. The fatty acyl-CoAs were dissolved in 20 mM sodium acetate at pH 6.4 as a 2 mM stock and stored at −80° C. until used. Before the experiment started, all reagents were kept on ice in the dark. To begin the experiment, 50 μL of mixed micelles without or with sterols was added into a HELLMA microcuvette with 3 mm light path. Twenty-five microliters of ACAT1 protein (in 8.13 mM CHAPS and 0.5 M KCl) was then added and rapidly mixed. Fluorescence was monitored within 15 seconds of adding the enzyme. The sample compartment of the instrument was maintained at 20° C. The fluorescence emission spectrum was scanned in 2 minutes between 310 and 410 nm. The differences in fluorescence intensity at 10 intervals within 325-335 nm were averaged in order to calculate the ΔF value between the ligated protein vs that of the unligated protein.
Binding studies were subsequently conducted by monitoring the effect of increasing concentrations of oleoyl-CoA on the intrinsic fluorescence of HisACAT1/FLAG. […] However, the maximal change in the peak of the spectrum was much smaller (5% with respect to the unliganded protein). […] The data was analyzed for a simple bimolecular dissociation equilibrium using the PRISM program.
Binding experiments were subsequently performed by monitoring the effect of increasing concentrations of cholesterol, from 10 to 600 μM, on the intrinsic fluorescence of HisACAT1/FLAG. […] It was estimated that the cholesterol concentration that caused half-maximal spectral change was 35 μM. […] The changes in the intrinsic fluorescence of ACAT1 caused by cholesterol, epicholesterol, coprostanol, or epicoprostanol as the ligand were also compared.

[4] = tested on: amyloid precursor protein (APP); conditions: cited from earlier work

C[C@]12CC[C@H](O)CC1=CC[C@@H]1[C@@H]2CC[C@]2(C)C(=O)CC[C@@H]12 [DHEA, dihydroepiandrosterone]
ACAT1 substrate activity ([1]; absence of cholesterol): did not exhibit ACAT substrate activity | ACAT1 substrate activity ([1]; presence of excess cholesterol (0.32 mM)): exhibited significant substrate activity | apparent Km as ACAT1 substrate ([1]; with cholesterol present in vitro (0.32 mM)): too high to be measurable

CC[C@H](CC[C@@H](C)[C@H]1CC[C@H]2[C@@H]3CC=C4C[C@@H](O)CC[C@]4(C)[C@H]3CC[C@]12C)C(C)C [Sitosterol]
activation of pregnenolone esterification by sterol ([1]; ACAT1): not as efficiently as cholesterol | activation of pregnenolone esterification by sterol [2]: only slightly activated

CCCCCCCCCCCCCCCCCC(=O)SCCNC(=O)CCNC(=O)[C@H](O)C(C)(C)COP(=O)(O)OP(=O)(O)OC[C@H]1O[C@@H](n2cnc3c(N)ncnc32)[C@H](O)[C@@H]1OP(=O)(O)O [stearoyl-CoA]
maximal increase in fluorescence peak height with respect to unliganded ACAT1 protein [3]: 5% | dissociation constant ([3]; simple bimolecular dissociation equilibrium, PRISM): too small to derive a reliable dissociation constant

CC(C)CCC[C@@H](C)[C@H]1CC[C@H]2[C@@H]3[C@H](O)C=C4C[C@@H](O)CC[C@]4(C)[C@H]3CC[C@]12C [7-alpha-OH-cholesterol]
activation of pregnenolone esterification by sterol ([1]; ACAT1): least activation

CC(C)CC[C@@H](O)[C@@H](C)[C@H]1CC[C@H]2[C@@H]3CC=C4C[C@@H](O)CC[C@]4(C)[C@H]3CC[C@]12C [22R-hydroxy-cholesterol]
activation of pregnenolone esterification by sterol ([1]; ACAT1): least activation

CC(C)CCC[C@@H](C)[C@H]1CC[C@H]2[C@@H]3CC=C4C[C@H](O)CC[C@]4(C)[C@H]3CC[C@]12C [Epi-cholesterol]
activation of pregnenolone esterification by sterol ([1]; ACAT1): much less efficiently than sitosterol | maximal increase in fluorescence peak height with respect to unliganded ACAT1 protein [3]: much smaller than those caused by cholesterol | concentration that caused half-maximal spectral change ([3]; ligand 10 to 600 μM): too small to derive a reliable binding curve

CCCCCCCC[C@H](SCCCCCC)C(=O)Nc1c(SC)cc(C)nc1SC [CP113818]
full-length human APP content ([4]; animal model for AD): did not cause a reduction | processing of APP ([4]; animal models for AD): inhibit the processing of both human amyloid precursor protein (APP) and mouse APP

CC(C)CCCC(C)C1CCC2C3CC=C4CC(O)CCC4(C)C3CCC12C (single isomer, unassigned) [enantiomeric (ent-)cholesterol]
activation of pregnenolone esterification by sterol ([1]; ACAT1): much less efficiently than sitosterol

CC(C)CCC[C@@H](C)[C@H]1CC[C@H]2[C@@H]3CC=C4C[C@@H](O)CC[C@]4(C)[C@H]3CC[C@]12C [cholesterol]
activation of pregnenolone esterification ([1]; ACAT1, cholesterol added to assay mixture): more than 100 fold | activation of pregnenolone esterification by sterol ([1]; ACAT1): maximal activation | activation of pregnenolone esterification ([2]; cholesterol added to assay mixture): more than 100 fold | activation of pregnenolone esterification by sterol [2]: maximal activation | maximal increase in fluorescence peak height with respect to unliganded ACAT1 protein [3]: up to 35% | EC50 ([3]; ligand 10 to 600 μM, read-out: concentration that caused half-maximal spectral change): 35 µM

CC(C)[C@@H](C)/C=C/[C@@H](C)[C@H]1CC[C@H]2C3=CC=C4C[C@@H](O)CC[C@]4(C)C3=CC[C@]12C [dehydroergosterol]
activation of pregnenolone esterification by sterol ([1]; ACAT1): much less efficiently than sitosterol
